{"source": "the OligoGym collection", "target": "SOD1", "settings": "ASO", "note": "“And” between values parts separate entries of the source, which are not always exact repeats. Equal entries are not always repeated. After the bases stand the sugars from the 5' end (letter, count) and the backbone: PS all phosphorothioate, else s phosphorothioate and o phosphodiester by linkage. Methylation of C is not given here. e = 2'-O-(2-methoxyethyl) (MOE); k = constrained ethyl (cEt); d = 2'-deoxy (DNA)", "data": [{"sequence": "AACAGATGAGTTAAGGG (sugars e2 k2 d8 k2 e3, PS)", "values": [{"measurement": "target mRNA inhibition", "setting": "HepG2, 0.1875 µM", "result": 32, "unit": "%"}, {"measurement": "target mRNA inhibition", "setting": "HepG2, 0.75 µM", "result": 55, "unit": "%"}, {"measurement": "target mRNA inhibition", "setting": "HepG2, 3 µM", "result": 78, "unit": "%"}, {"measurement": "target mRNA inhibition", "setting": "HepG2, 4 µM", "result": 73, "unit": "%"}, {"measurement": "target mRNA inhibition", "setting": "HepG2, 12 µM", "result": 93, "unit": "%"}]}, {"sequence": "AACCAGCACCCCGTCTCCGC (sugars e5 d10 e5, PS)", "values": [{"measurement": "target mRNA inhibition", "setting": "HepG2, 4 µM", "result": 11, "unit": "%"}]}, {"sequence": "AACTATACAAATCTTCC (sugars e2 k2 d8 k2 e3, PS)", "values": [{"measurement": "target mRNA inhibition", "setting": "HepG2, 5 µM", "result": 60, "unit": "%"}]}, {"sequence": "AACTATACAAATCTTCC (sugars e3 k2 d7 k2 e3, PS)", "values": [{"measurement": "target mRNA inhibition", "setting": "HepG2, 3 µM", "result": 28, "unit": "%"}]}, {"sequence": "AAGATTACAGTGTTTAA (sugars e3 k2 d7 k2 e3, PS)", "values": [{"measurement": "target mRNA inhibition", "setting": "HepG2, 3 µM", "result": 34, "unit": "%"}]}, {"sequence": "AAGGGAATGTTTATTGG (sugars e3 k2 d7 k2 e3, PS)", "values": [{"measurement": "target mRNA inhibition", "setting": "HepG2, 3 µM", "result": 2, "unit": "%"}]}, {"sequence": "AAGTGCCATACAGGGTT (sugars e2 k2 d9 k2 e2, PS)", "values": [{"measurement": "target mRNA inhibition", "setting": "HepG2, 5 µM", "result": 21, "unit": "%"}]}, {"sequence": "AAGTTTAATACCCATCT (sugars e2 k2 d8 k2 e3, PS)", "values": [{"measurement": "target mRNA inhibition", "setting": "HepG2, 5 µM", "result": 54, "unit": "%"}]}, {"sequence": "AAGTTTAATACCCATCT (sugars e2 k2 d9 k2 e2, PS)", "values": [{"measurement": "target mRNA inhibition", "setting": "HepG2, 5 µM", "result": 59, "unit": "%"}]}, {"sequence": "AATAAGTGCCATACAGG (sugars e2 k2 d8 k2 e3, PS)", "values": [{"measurement": "target mRNA inhibition", "setting": "HepG2, 5 µM", "result": 40, "unit": "%"}]}, {"sequence": "AATACCCATCTGTGATTTAA (sugars e5 d10 e5, PS)", "values": [{"measurement": "target mRNA inhibition", "setting": "HepG2, 5 µM", "result": 0, "unit": "%"}]}, {"sequence": "AATAGACACATCGGCCACAC (sugars e5 d10 e5, PS)", "values": [{"measurement": "target mRNA inhibition", "setting": "HepG2, 5 µM", "result": "30% and 25%"}]}, {"sequence": "AATAGCCTCATAATAAG (sugars e2 k2 d8 k2 e3, PS)", "values": [{"measurement": "target mRNA inhibition", "setting": "HepG2, 5 µM", "result": 20, "unit": "%"}]}, {"sequence": "AATCTTCCAAGTGATCATAA (sugars e5 d10 e5, PS)", "values": [{"measurement": "target mRNA inhibition", "setting": "HepG2, 5 µM", "result": 4, "unit": "%"}]}, {"sequence": "AATGTTTATTGGGCGAT (sugars e3 k2 d7 k2 e3, PS)", "values": [{"measurement": "target mRNA inhibition", "setting": "HepG2, 3 µM", "result": 30, "unit": "%"}]}, {"sequence": "AATTACACTTTTAAGATTAC (sugars e5 d10 e5, PS)", "values": [{"measurement": "target mRNA inhibition", "setting": "HepG2, 5 µM", "result": 1, "unit": "%"}]}, {"sequence": "ACACAATTACACTTTTAAGA (sugars e5 d10 e5, PS)", "values": [{"measurement": "target mRNA inhibition", "setting": "HepG2, 5 µM", "result": 0, "unit": "%"}]}, {"sequence": "ACAGCTAGCAGGATAAC (sugars e2 k2 d8 k2 e3, PS)", "values": [{"measurement": "target mRNA inhibition", "setting": "HepG2, 0.1875 µM", "result": 11, "unit": "%"}, {"measurement": "target mRNA inhibition", "setting": "HepG2, 0.75 µM", "result": 64, "unit": "%"}, {"measurement": "target mRNA inhibition", "setting": "HepG2, 3 µM", "result": 87, "unit": "%"}, {"measurement": "target mRNA inhibition", "setting": "HepG2, 4 µM", "result": 79, "unit": "%"}, {"measurement": "target mRNA inhibition", "setting": "HepG2, 12 µM", "result": 95, "unit": "%"}]}, {"sequence": "ACAGCTAGCAGGATAAC (sugars e2 k2 d9 k2 e2, PS)", "values": [{"measurement": "target mRNA inhibition", "setting": "HepG2, 0.1875 µM", "result": 29, "unit": "%"}, {"measurement": "target mRNA inhibition", "setting": "HepG2, 0.75 µM", "result": 71, "unit": "%"}, {"measurement": "target mRNA inhibition", "setting": "HepG2, 3 µM", "result": 89, "unit": "%"}, {"measurement": "target mRNA inhibition", "setting": "HepG2, 4 µM", "result": 83, "unit": "%"}, {"measurement": "target mRNA inhibition", "setting": "HepG2, 12 µM", "result": 97, "unit": "%"}]}, {"sequence": "ACAGGTACTTTAAAGCA (sugars e2 k2 d9 k2 e2, PS)", "values": [{"measurement": "target mRNA inhibition", "setting": "HepG2, 5 µM", "result": 20, "unit": "%"}]}, {"sequence": "ACAGTGTTTAATGTTTA (sugars e2 k2 d8 k2 e3, PS)", "values": [{"measurement": "target mRNA inhibition", "setting": "HepG2, 0.1875 µM", "result": 39, "unit": "%"}, {"measurement": "target mRNA inhibition", "setting": "HepG2, 0.75 µM", "result": 69, "unit": "%"}, {"measurement": "target mRNA inhibition", "setting": "HepG2, 3 µM", "result": 82, "unit": "%"}, {"measurement": "target mRNA inhibition", "setting": "HepG2, 4 µM", "result": 78, "unit": "%"}, {"measurement": "target mRNA inhibition", "setting": "HepG2, 5 µM", "result": 83, "unit": "%"}, {"measurement": "target mRNA inhibition", "setting": "HepG2, 12 µM", "result": "84% and 86%"}]}, {"sequence": "ACAGTGTTTAATGTTTA (sugars e2 k2 d9 k2 e2, PS)", "values": [{"measurement": "target mRNA inhibition", "setting": "HepG2, 0.1875 µM", "result": 40, "unit": "%"}, {"measurement": "target mRNA inhibition", "setting": "HepG2, 0.75 µM", "result": 67, "unit": "%"}, {"measurement": "target mRNA inhibition", "setting": "HepG2, 3 µM", "result": 86, "unit": "%"}, {"measurement": "target mRNA inhibition", "setting": "HepG2, 4 µM", "result": 79, "unit": "%"}, {"measurement": "target mRNA inhibition", "setting": "HepG2, 5 µM", "result": 84, "unit": "%"}, {"measurement": "target mRNA inhibition", "setting": "HepG2, 12 µM", "result": "83% and 88%"}]}, {"sequence": "ACATGGAATCCATGCAG (sugars e3 k2 d7 k2 e3, PS)", "values": [{"measurement": "target mRNA inhibition", "setting": "HepG2, 3 µM", "result": 0, "unit": "%"}]}, {"sequence": "ACCATCTTTGTCAGCAGTCA (sugars e5 d10 e5, PS)", "values": [{"measurement": "target mRNA inhibition", "setting": "HepG2, 5 µM", "result": "41% and 30%"}]}, {"sequence": "ACCCATCTGTGATTTAA (sugars e2 k2 d9 k2 e2, PS)", "values": [{"measurement": "target mRNA inhibition", "setting": "HepG2, 5 µM", "result": 44, "unit": "%"}]}, {"sequence": "ACCTCCGCGCCTCGCCCACT (sugars e5 d10 e5, PS)", "values": [{"measurement": "target mRNA inhibition", "setting": "HepG2, 4 µM", "result": "63% and 77%"}, {"measurement": "target mRNA inhibition", "setting": "HepG2, 12 µM", "result": 92, "unit": "%"}]}, {"sequence": "ACGCTGCAGGAGACTAC (sugars e3 k2 d7 k2 e3, PS)", "values": [{"measurement": "target mRNA inhibition", "setting": "HepG2, 3 µM", "result": 25, "unit": "%"}]}, {"sequence": "ACTACATCCAAGGGAAT (sugars e2 k2 d8 k2 e3, PS)", "values": [{"measurement": "target mRNA inhibition", "setting": "HepG2, 4 µM", "result": 42, "unit": "%"}]}, {"sequence": "ACTGCAACGGAAACCCCAGA (sugars e5 d10 e5, PS)", "values": [{"measurement": "target mRNA inhibition", "setting": "HepG2, 4 µM", "result": 43, "unit": "%"}]}, {"sequence": "AGACATTTTAACTGAGT (sugars e2 k2 d9 k2 e2, PS)", "values": [{"measurement": "target mRNA inhibition", "setting": "HepG2, 5 µM", "result": 53, "unit": "%"}]}, {"sequence": "AGACCTCCGCGCCTCGCCCA (sugars e5 d10 e5, PS)", "values": [{"measurement": "target mRNA inhibition", "setting": "HepG2, 12 µM", "result": 84, "unit": "%"}]}, {"sequence": "AGATTACAGTGTTTAAT (sugars e3 k2 d7 k2 e3, PS)", "values": [{"measurement": "target mRNA inhibition", "setting": "HepG2, 3 µM", "result": 45, "unit": "%"}]}, {"sequence": "AGCAACTCTGAAAAAGTCAC (sugars e5 d10 e5, PS)", "values": [{"measurement": "target mRNA inhibition", "setting": "HepG2, 5 µM", "result": 14, "unit": "%"}]}, {"sequence": "AGCAGGATAACAGATGA (sugars e3 k2 d7 k2 e3, PS)", "values": [{"measurement": "target mRNA inhibition", "setting": "HepG2, 3 µM", "result": 45, "unit": "%"}]}, {"sequence": "AGCTAGCAGGATAACAG (sugars e2 k2 d8 k2 e3, PS)", "values": [{"measurement": "target mRNA inhibition", "setting": "HepG2, 4 µM", "result": 57, "unit": "%"}]}, {"sequence": "AGCTAGCAGGATAACAG (sugars e3 k2 d7 k2 e3, PS)", "values": [{"measurement": "target mRNA inhibition", "setting": "HepG2, 3 µM", "result": 15, "unit": "%"}]}, {"sequence": "AGGATACATTTCTACAG (sugars e2 k2 d8 k2 e3, PS)", "values": [{"measurement": "target mRNA inhibition", "setting": "HepG2, 4 µM", "result": 60, "unit": "%"}]}, {"sequence": "AGGATACATTTCTACAGC (sugars e5 d8 e5, linkages s1 o3 s9 o2 s2)", "values": [{"measurement": "target mRNA inhibition", "setting": "A431, 0.12 µM", "result": 42, "unit": "%"}, {"measurement": "target mRNA inhibition", "setting": "A431, 0.6 µM", "result": 23, "unit": "%"}, {"measurement": "target mRNA inhibition", "setting": "A431, 3 µM", "result": 26, "unit": "%"}, {"measurement": "target mRNA inhibition", "setting": "A431, 15 µM", "result": 45, "unit": "%"}, {"measurement": "target mRNA inhibition", "setting": "HepG2, 0.222 µM", "result": 9, "unit": "%"}, {"measurement": "target mRNA inhibition", "setting": "HepG2, 0.667 µM", "result": 43, "unit": "%"}, {"measurement": "target mRNA inhibition", "setting": "HepG2, 2 µM", "result": 65, "unit": "%"}, {"measurement": "target mRNA inhibition", "setting": "HepG2, 6 µM", "result": 86, "unit": "%"}]}, {"sequence": "AGGATACATTTCTACAGCTA (sugars e5 d10 e5, PS)", "values": [{"measurement": "target mRNA inhibition", "setting": "HepG2, 0.1875 µM", "result": 29, "unit": "%"}, {"measurement": "target mRNA inhibition", "setting": "HepG2, 0.75 µM", "result": 47, "unit": "%"}, {"measurement": "target mRNA inhibition", "setting": "HepG2, 3 µM", "result": 82, "unit": "%"}, {"measurement": "target mRNA inhibition", "setting": "HepG2, 4 µM", "result": 56, "unit": "%"}, {"measurement": "target mRNA inhibition", "setting": "HepG2, 5 µM", "result": 79, "unit": "%"}, {"measurement": "target mRNA inhibition", "setting": "HepG2, 12 µM", "result": "80% and 96%"}]}, {"sequence": "AGGATTAAAGTGAGGAC (sugars e3 k2 d7 k2 e3, PS)", "values": [{"measurement": "target mRNA inhibition", "setting": "HepG2, 3 µM", "result": 23, "unit": "%"}]}, {"sequence": "AGGTACTTTAAAGCAACTCT (sugars e5 d10 e5, PS)", "values": [{"measurement": "target mRNA inhibition", "setting": "HepG2, 5 µM", "result": 36, "unit": "%"}]}]}
